Tested on: MV-4-11 cells
Assay: Gene expression microarray analysis (Affymetrix PrimeView) and GSEA
Assay type: cell-based, human
Parameters: RFU PODN (11730768_x_at) / Fold change /veh PODN (11730768_x_at) / RFU LINC00158 (11744669_a_at) / Fold change /veh LINC00158 (11744669_a_at) / RFU DUSP10 (11751237_a_at) / Fold change /veh DUSP10 (11751237_a_at) / RFU ID3 (11757404_x_at) / Fold change /veh ID3 (11757404_x_at) / RFU PLEKHG5 (11737974_s_at) / Fold change /veh PLEKHG5 (11737974_s_at) / RFU LRRC4B (11730491_at) / Fold change /veh LRRC4B (11730491_at) / RFU GIMAP4 (11747438_a_at) / Fold change /veh GIMAP4 (11747438_a_at) / RFU KRT8 (11758183_x_at) / Fold change /veh KRT8 (11758183_x_at) / RFU CNN1 (11734310_a_at) / Fold change /veh CNN1 (11734310_a_at) / RFU VPS37D (11726825_at) / Fold change /veh VPS37D (11726825_at) / RFU C10orf10 (11716522_x_at) / Fold change /veh C10orf10 (11716522_x_at) / RFU KIR2DL2 /// KIR2DL4 /// KIR2DL5A /// KIR2DL5B /// KIR2DS1 /// KIR2DS2 /// KIR2DS3 /// KIR2DS4 /// KIR3DL3 /// KIR3DL3 /// KIR3DS1 (11738374_at) / Fold change /veh KIR2DL2 /// KIR2DL4 /// KIR2DL5A /// KIR2DL5B /// KIR2DS1 /// KIR2DS2 /// KIR2DS3 /// KIR2DS4 /// KIR3DL3 /// KIR3DL3 /// KIR3DS1 (11738374_at) / RFU C1QL1 (11718748_at) / Fold change /veh C1QL1 (11718748_at) / RFU TMPRSS4 (11747572_a_at) / Fold change /veh TMPRSS4 (11747572_a_at) / RFU HAMP (11756126_x_at) / Fold change /veh HAMP (11756126_x_at) / RFU RNFT2 (11725882_a_at) / Fold change /veh RNFT2 (11725882_a_at) / RFU NR4A2 (11747474_a_at) / Fold change /veh NR4A2 (11747474_a_at) / RFU ABCC12 (11746883_a_at) / Fold change /veh ABCC12 (11746883_a_at) / RFU TMEM136 (11760407_x_at) / Fold change /veh TMEM136 (11760407_x_at) / RFU CLDN22 /// WWC2 (11732394_at) / Fold change /veh CLDN22 /// WWC2 (11732394_at) / RFU HLA-DPB1 (11760878_x_at) / Fold change /veh HLA-DPB1 (11760878_x_at) / RFU SPINT1 (11716480_a_at) / Fold change /veh SPINT1 (11716480_a_at) / RFU GAP43 (11754022_s_at) / Fold change /veh GAP43 (11754022_s_at) / RFU A4GNT (11735810_at) / Fold change /veh A4GNT (11735810_at) / RFU PRB3 (11715151_x_at) / Fold change /veh PRB3 (11715151_x_at) / RFU TUBB4B (11761932_at) / Fold change /veh TUBB4B (11761932_at) / RFU CAPN14 (11732068_a_at) / Fold change /veh CAPN14 (11732068_a_at) / RFU TMCC2 (11721928_a_at) / Fold change /veh TMCC2 (11721928_a_at) / RFU IRGQ (11745062_a_at) / Fold change /veh IRGQ (11745062_a_at) / RFU FAM174B (11720279_a_at) / Fold change /veh FAM174B (11720279_a_at) / RFU TMPRSS4 (11748680_a_at) / Fold change /veh TMPRSS4 (11748680_a_at) / RFU FAM212B (11763350_a_at) / Fold change /veh FAM212B (11763350_a_at) / RFU PLEKHG5 (11743358_a_at) / Fold change /veh PLEKHG5 (11743358_a_at) / RFU ZSCAN30 (11745921_a_at) / Fold change /veh ZSCAN30 (11745921_a_at) / RFU CMKLR1 (11741424_a_at) / Fold change /veh CMKLR1 (11741424_a_at) / RFU LOC101060620 /// MAPK8IP1 (11723275_at) / Fold change /veh LOC101060620 /// MAPK8IP1 (11723275_at) / RFU SPTSSB (11747773_x_at) / Fold change /veh SPTSSB (11747773_x_at) / RFU PRSS12 (11739890_at) / Fold change /veh PRSS12 (11739890_at) / RFU BIN1 (11741810_x_at) / Fold change /veh BIN1 (11741810_x_at) / RFU WNT11 (11732464_a_at) / Fold change /veh WNT11 (11732464_a_at) / RFU C10orf10 (11716521_a_at) / Fold change /veh C10orf10 (11716521_a_at) / RFU C5orf56 (11738089_at) / Fold change /veh C5orf56 (11738089_at) / RFU CYB561 (11721691_x_at) / Fold change /veh CYB561 (11721691_x_at) / RFU ANKRD19P (11752326_a_at) / Fold change /veh ANKRD19P (11752326_a_at) / RFU OR2T12 /// OR2T33 /// OR2T8 (11738714_s_at) / Fold change /veh OR2T12 /// OR2T33 /// OR2T8 (11738714_s_at) / RFU VCAN (11748164_a_at) / Fold change /veh VCAN (11748164_a_at) / RFU JSRP1 (11732532_at) / Fold change /veh JSRP1 (11732532_at) / RFU KRTAP10-11 (11738290_x_at) / Fold change /veh KRTAP10-11 (11738290_x_at) / RFU MYO3A (11730013_a_at) / Fold change /veh MYO3A (11730013_a_at) / RFU EBF3 (11725865_a_at) / Fold change /veh EBF3 (11725865_a_at) / RFU CAMK2N1 (11719241_x_at) / Fold change /veh CAMK2N1 (11719241_x_at) / RFU C5orf56 (11738088_a_at) / Fold change /veh C5orf56 (11738088_a_at) / RFU OLFML3 (11715873_a_at) / Fold change /veh OLFML3 (11715873_a_at) / RFU LOC100653217 /// NTM (11731650_a_at) / Fold change /veh LOC100653217 /// NTM (11731650_a_at) / RFU MAPK11 (11762145_a_at) / Fold change /veh MAPK11 (11762145_a_at) / RFU FIZ1 (11724087_x_at) / Fold change /veh FIZ1 (11724087_x_at) / RFU OASL (11726364_x_at) / Fold change /veh OASL (11726364_x_at) / RFU SOX15 (11748057_x_at) / Fold change /veh SOX15 (11748057_x_at) / RFU CD79A (11719716_a_at) / Fold change /veh CD79A (11719716_a_at) / RFU HIST1H1D (11736915_at) / Fold change /veh HIST1H1D (11736915_at) / RFU CASKIN2 (11723855_a_at) / Fold change /veh CASKIN2 (11723855_a_at) / RFU LOC730098 (11760151_x_at) / Fold change /veh LOC730098 (11760151_x_at) / RFU OR4N2 (11742367_at) / Fold change /veh OR4N2 (11742367_at) / RFU PRRT2 (11749266_a_at) / Fold change /veh PRRT2 (11749266_a_at) / RFU SNX32 (11753110_a_at) / Fold change /veh SNX32 (11753110_a_at) / RFU CDHR5 (11726645_a_at) / Fold change /veh CDHR5 (11726645_a_at) / RFU RCAN1 (11760418_a_at) / Fold change /veh RCAN1 (11760418_a_at) / RFU FAM167A (11723789_a_at) / Fold change /veh FAM167A (11723789_a_at) / RFU FAM26E (11764081_at) / Fold change /veh FAM26E (11764081_at) / RFU ISYNA1 (11749810_s_at) / Fold change /veh ISYNA1 (11749810_s_at) / RFU ACY1 (11761880_at) / Fold change /veh ACY1 (11761880_at) / RFU 11764098_at / Fold change /veh 11764098_at / RFU SAMD14 (11745864_x_at) / Fold change /veh SAMD14 (11745864_x_at) / RFU NPB (11741838_a_at) / Fold change /veh NPB (11741838_a_at) / RFU TMPRSS6 (11731388_a_at) / Fold change /veh TMPRSS6 (11731388_a_at) / RFU KRTAP10-2 (11738614_at) / Fold change /veh KRTAP10-2 (11738614_at) / RFU ARHGAP8 /// PRR5-ARHGAP8 (11727945_x_at) / Fold change /veh ARHGAP8 /// PRR5-ARHGAP8 (11727945_x_at) / RFU KRTAP5-7 /// NADSYN1 (11734609_at) / Fold change /veh KRTAP5-7 /// NADSYN1 (11734609_at) / RFU RASL12 (11751679_a_at) / Fold change /veh RASL12 (11751679_a_at) / RFU CDKN2B (11736163_a_at) / Fold change /veh CDKN2B (11736163_a_at) / RFU PRF1 (11729649_at) / Fold change /veh PRF1 (11729649_at) / RFU, ZNF638 /// ZNF638-IT1 / Fold change vs veh, ZNF638 /// ZNF638-IT1 / RFU, PANK3 / Fold change vs veh, PANK3 / RFU, SH3YL1 / Fold change vs veh, SH3YL1 / RFU, ZEB2 / Fold change vs veh, ZEB2 / RFU, NRIP1 / Fold change vs veh, NRIP1 / RFU, PTTG1IP / Fold change vs veh, PTTG1IP / RFU, CAPN2 / Fold change vs veh, CAPN2 / RFU, MED14 / Fold change vs veh, MED14 / RFU, SNORA58 / Fold change vs veh, SNORA58 / RFU, C1orf63 / Fold change vs veh, C1orf63 / RFU, LRRFIP1 / Fold change vs veh, LRRFIP1 / RFU, NDUFAF7 / Fold change vs veh, NDUFAF7 / RFU, SLC12A2 / Fold change vs veh, SLC12A2 / RFU, IBTK / Fold change vs veh, IBTK / RFU, ESF1 / Fold change vs veh, ESF1 / Fold change vs veh, TMEM50B / RFU, TAOK1 / Fold change vs veh, TAOK1 / RFU, ACBD3 / Fold change vs veh, ACBD3 / RFU, TMA16 / Fold change vs veh, TMA16 / RFU, RWDD3 / Fold change vs veh, RWDD3 / RFU, BCAT1 / Fold change vs veh, BCAT1 / RFU, EDEM3 / Fold change vs veh, EDEM3 / RFU, TMEM33 / Fold change vs veh, TMEM33 / RFU, WDR75 / Fold change vs veh, WDR75 / RFU, AHCTF1 / Fold change vs veh, AHCTF1 / RFU, TFRC / Fold change vs veh, TFRC / RFU, ZDHHC17 / Fold change vs veh, ZDHHC17 / RFU, NOM1 / Fold change vs veh, NOM1 / RFU, ARL8B / Fold change vs veh, ARL8B / RFU, ZBTB11 / Fold change vs veh, ZBTB11 / RFU, TAMM41 / Fold change vs veh, TAMM41 / RFU, KIAA1704 /// LOC100996395 / Fold change vs veh, KIAA1704 /// LOC100996395 / RFU, ING1 / Fold change vs veh, ING1 / RFU, TRMT61B / Fold change vs veh, TRMT61B / RFU, FUBP3 / Fold change vs veh, FUBP3 / RFU, TP53 / Fold change vs veh, TP53 / RFU, TNKS2 / Fold change vs veh, TNKS2 / RFU, ZFP14 / Fold change vs veh, ZFP14 / RFU, ACTR2 / Fold change vs veh, ACTR2 / RFU, PPP3R1 / Fold change vs veh, PPP3R1 / RFU, PIK3R1 / Fold change vs veh, PIK3R1 / RFU, HNRNPA1 / Fold change vs veh, HNRNPA1 / RFU, RNF170 / Fold change vs veh, RNF170 / RFU, ZNF28 / Fold change vs veh, ZNF28 / RFU, RNGTT / Fold change vs veh, RNGTT / RFU, OGT / Fold change vs veh, OGT / RFU, BRD1 / Fold change vs veh, BRD1 / RFU, MARS / Fold change vs veh, MARS / RFU, ZNF655 / Fold change vs veh, ZNF655 / RFU, FAHD1 / Fold change vs veh, FAHD1 / RFU, BDP1 / Fold change vs veh, BDP1 / RFU, LRRCC1 / Fold change vs veh, LRRCC1 / RFU, ARID1A / Fold change vs veh, ARID1A / RFU, ZNF146 / Fold change vs veh, ZNF146 / RFU, ZNF330 / Fold change vs veh, ZNF330 / RFU, GPN3 / Fold change vs veh, GPN3 / RFU, C9orf123 / Fold change vs veh, C9orf123 / RFU, N4BP2L2 / Fold change vs veh, N4BP2L2 / RFU, ARFIP1 / Fold change vs veh, ARFIP1 / RFU, FAM179B / Fold change vs veh, FAM179B / RFU, BCL10 / Fold change vs veh, BCL10 / RFU, UHRF1BP1L / Fold change vs veh, UHRF1BP1L / RFU, BET1 / Fold change vs veh, BET1 / RFU, CNOT2 / Fold change vs veh, CNOT2 / RFU, ZNF268 / Fold change vs veh, ZNF268 / Fold change vs veh, ZNF507 / RFU, DGCR2 / Fold change vs veh, DGCR2 / RFU, WDSUB1 / Fold change vs veh, WDSUB1 / Fold change vs veh, HSP90B1 /// MIR3652 / RFU, ADSS / Fold change vs veh, ADSS / RFU, GK / Fold change vs veh, GK / RFU, ZNF148 / Fold change vs veh, ZNF148 / RFU, TAF9 / Fold change vs veh, TAF9 / RFU, SLC1A5 / Fold change vs veh, SLC1A5 / RFU, SLMO2 / Fold change vs veh, SLMO2 / RFU, ABCC4 / Fold change vs veh, ABCC4 / RFU, LOC101060439 /// RAP1B / Fold change vs veh, LOC101060439 /// RAP1B / RFU, RFX7 / Fold change vs veh, RFX7 / RFU, GTPBP10 / Fold change vs veh, GTPBP10 / RFU, CNEP1R1 / Fold change vs veh, CNEP1R1 / RFU, BIVM-ERCC5 /// ERCC5 / Fold change vs veh, BIVM-ERCC5 /// ERCC5 / RFU, ILF3 / Fold change vs veh, ILF3 / RFU 11762660_at / Fold change /veh 11762660_at / RFU VCAN (11757783_s_at) / Fold change /veh VCAN (11757783_s_at) / RFU DDX43 (11728927_at) / Fold change /veh DDX43 (11728927_at) / RFU KRT8 (11758188_x_at) / Fold change /veh KRT8 (11758188_x_at) / RFU NKD1 (11759106_at) / Fold change /veh NKD1 (11759106_at) / RFU SRD5A1 (11742802_a_at) / Fold change /veh SRD5A1 (11742802_a_at) / RFU TPSAB1 /// TPSB2 (11721975_s_at) / Fold change /veh TPSAB1 /// TPSB2 (11721975_s_at) / RFU GSTM3 (11746129_a_at) / Fold change /veh GSTM3 (11746129_a_at) / RFU IL23R (11737362_x_at) / Fold change /veh IL23R (11737362_x_at) / RFU TMEM51 (11727254_a_at) / Fold change /veh TMEM51 (11727254_a_at) / RFU PIWIL2 (11732686_x_at) / Fold change /veh PIWIL2 (11732686_x_at) / RFU ORM1 (11744905_x_at) / Fold change /veh ORM1 (11744905_x_at) / RFU CCDC152 (11743942_at) / Fold change /veh CCDC152 (11743942_at) / RFU ECM1 (11717891_a_at) / Fold change /veh ECM1 (11717891_a_at) / RFU IL23R (11748794_a_at) / Fold change /veh IL23R (11748794_a_at) / RFU TNFAIP8L3 (11732012_x_at) / Fold change /veh TNFAIP8L3 (11732012_x_at) / RFU MBOAT4 (11741988_at) / Fold change /veh MBOAT4 (11741988_at) / RFU 11764193_at / Fold change /veh 11764193_at / RFU TMEM53 (11763286_at) / Fold change /veh TMEM53 (11763286_at) / RFU MAGEB2 (11727129_at) / Fold change /veh MAGEB2 (11727129_at) / RFU TMEM200A (11744735_a_at) / Fold change /veh TMEM200A (11744735_a_at) / RFU CCDC152 (11751479_a_at) / Fold change /veh CCDC152 (11751479_a_at) / RFU FAM211A (11726209_a_at) / Fold change /veh FAM211A (11726209_a_at) / RFU RGS16 (11746705_a_at) / Fold change /veh RGS16 (11746705_a_at) / RFU VCAN (11755009_s_at) / Fold change /veh VCAN (11755009_s_at) / RFU RHOB (11743442_s_at) / Fold change /veh RHOB (11743442_s_at) / RFU RGS16 (11720943_a_at) / Fold change /veh RGS16 (11720943_a_at) / RFU RGS16 (11720944_at) / Fold change /veh RGS16 (11720944_at) / RFU, VPS4B / Fold change vs veh, VPS4B / RFU, CREB1 / Fold change vs veh, CREB1 / RFU, DNAJC13 / Fold change vs veh, DNAJC13 / RFU, GNAQ / Fold change vs veh, GNAQ / RFU, CDK5R1 / Fold change vs veh, CDK5R1 / RFU, ZRANB3 / Fold change vs veh, ZRANB3 / RFU, CUL4A / Fold change vs veh, CUL4A / RFU, CCNY / Fold change vs veh, CCNY / RFU, UFL1 / Fold change vs veh, UFL1 / RFU, COG3 / Fold change vs veh, COG3 / RFU, DIAPH2 / Fold change vs veh, DIAPH2 / RFU, SKA2 / Fold change vs veh, SKA2 / RFU, AFF3 / Fold change vs veh, AFF3 / RFU, LMF1 / Fold change vs veh, LMF1 / RFU, IPO11 / Fold change vs veh, IPO11 / RFU, DFFB / Fold change vs veh, DFFB / RFU, FOXP1 / Fold change vs veh, FOXP1 / RFU, CARD8 / Fold change vs veh, CARD8 / RFU, STRN3 / Fold change vs veh, STRN3 / RFU, ADK / Fold change vs veh, ADK / RFU, RASSF2 / Fold change vs veh, RASSF2 / RFU, WIPF1 / Fold change vs veh, WIPF1 / RFU, LARP1B / Fold change vs veh, LARP1B / RFU, RASA1 / Fold change vs veh, RASA1 / RFU, RB1 / Fold change vs veh, RB1 / RFU, PPFIA1 / Fold change vs veh, PPFIA1 / RFU, MAT2A / Fold change vs veh, MAT2A / RFU, CCT5 / Fold change vs veh, CCT5 / RFU, WDR92 / Fold change vs veh, WDR92 / RFU, CUX1 / Fold change vs veh, CUX1 / RFU, TTC7A / Fold change vs veh, TTC7A / RFU, TMEM135 / Fold change vs veh, TMEM135 / RFU, DEPTOR / Fold change vs veh, DEPTOR / RFU, CPM / Fold change vs veh, CPM / RFU, DNAJB6 / Fold change vs veh, DNAJB6 / RFU, CACNA2D3 / Fold change vs veh, CACNA2D3 / RFU, DTX4 / Fold change vs veh, DTX4 / RFU, TFCP2 / Fold change vs veh, TFCP2 / RFU, GMCL1 /// GMCL1P1 / Fold change vs veh, GMCL1 /// GMCL1P1 / RFU, AEBP2 / Fold change vs veh, AEBP2 / RFU, SNHG1 /// SNORD22 /// SNORD25 /// SNORD26 /// SNORD27 /// SNORD28 /// SNORD29 /// SNORD31 / Fold change vs veh, SNHG1 /// SNORD22 /// SNORD25 /// SNORD26 /// SNORD27 /// SNORD28 /// SNORD29 /// SNORD31 / Fold change (Aza/veh), C12orf56 (ProbeSet 11735607_a_at) / Fold change (ACY-1035/veh), C12orf56 (ProbeSet 11735607_a_at) / Fold change (Aza/veh), FGFR1OP (ProbeSet 11751329_s_at) / Fold change (ACY-1035/veh), FGFR1OP (ProbeSet 11751329_s_at) / Fold change (Aza/veh), VPS36 (ProbeSet 11739960_a_at) / Fold change (ACY-1035/veh), VPS36 (ProbeSet 11739960_a_at) / RFU SYPL1 (11715823_x_at) / Fold change /veh SYPL1 (11715823_x_at) / RFU IGFBP7 (11715501_s_at) / Fold change /veh IGFBP7 (11715501_s_at) / RFU REEP3 (11722064_at) / Fold change /veh REEP3 (11722064_at) / RFU IGLL1 (11728026_x_at) / Fold change /veh IGLL1 (11728026_x_at): dose or concentration left out as unconfirmed
Settings: ProbeSet 11721969_s_at; LIST B

Nc1ccc(-c2cccs2)cc1NC(=O)c1ccc2c(c1)cc(C1CC1)n2CCN1CCOCC1 [ACY-1035]
Fold change vs veh, BDP1: 0.84
